In PubChem BioAssay (NCI):
Where “and” joins values, the source holds several entries; their conditions need not be identical. Identical values can stand only once.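 Each compound was tested at five concentrations against cells in 96-well plates for 48 hours. The concentration for 50% growth inhibition is given as GI50. Definition used: TGI = concentration required for complete inhibition of growth.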

Assays:
Assay in all cases: DTP human tumour cell line panel, 48 h
[1] = tested on: OVCAR-3 ovarian
[2] = tested on: 786-0 renal
[3] = tested on: HCT-116 colon
[4] = tested on: SNB-19 CNS
[5] = tested on: CCRF-CEM leukemia
[6] = tested on: SK-MEL-5 melanoma
[7] = tested on: KM12 colon
[8] = tested on: U251 CNS
[9] = tested on: PC-3 prostate
[10] = tested on: MDA-MB-231 breast

| Compound | TGI [1] | TGI [2] [µM] | TGI [3] [µM] | TGI [4] [µM] | TGI [5] [µM] | TGI [6] [µM] | TGI [7] [µM] | TGI [8] [µM] | TGI [9] [µM] | TGI [10] [µM] | GI50 [1] [µM] | GI50 [3] [µM] | GI50 [4] [µM] | GI50 [5] [µM] | GI50 [7] [µM] | GI50 [8] [µM] |
| --- | --- | --- | --- | --- | --- | --- | --- | --- | --- | --- | --- | --- | --- | --- | --- | --- |
| COc1ccc(NC(=S)NN=C(C)c2cccc(C(C)=NNC(=S)Nc3ccc(OC)cc3)n2)cc1 | > 100 µM | > 100 | > 100 | > 100 | > 100 | > 100 | 84.2 | > 100 | > 100 |  |  |  |  |  |  |  |
| Cc1ccc(-c2cc(-c3ccco3)nc(N)n2)o1 | > 100 µM | > 100 | > 100 | > 100 | > 100 | > 100 | > 100 |  |  |  |  |  |  |  |  |  |
| Oc1c(Cl)c2nccnc2c2ccccc12 | > 100 µM | > 100 | > 100 |  | > 100 | > 100 | > 100 | > 100 |  |  |  |  |  |  |  |  |
| N#Cc1c(-c2ccco2)c2c(n(C3OC(CO)C(O)C(O)C3O)c1=S)CCCC2 (stereo unspecified) | > 100 µM | > 100 | > 100 |  | > 100 | > 100 | > 100 |  | > 100 | > 100 |  |  |  |  |  |  |
| COc1ccc(-n2c(CCCC(=O)O)nc3c2C(=O)c2ccccc2C3=O)cc1 | 92.9 µM | > 100 | > 100 | > 100 | > 100 |  | > 100 | > 100 |  | > 100 |  |  |  |  |  |  |
| CC1(C)CCc2c(cc3c(c2O)CCC(C)(C)O3)O1 | > 100 µM |  | > 100 | > 100 | > 100 | > 100 | > 100 | > 100 | > 100 | > 100 |  |  |  |  |  |  |
| O=c1[nH]cnc2c1nnn2CCCn1nnc2c(=O)[nH]cnc21 | > 100 µM | > 100 | > 100 | > 100 | > 100 | > 100 | > 100 | > 100 |  |  |  |  |  |  |  |  |
| COc1c2nc(CCl)n(C)c(=O)c2c(OC)c2c(=O)n(C)c(CCl)nc12 | 5.68 µM | 3.29 |  | 5.07 | 2.09 | 4.96 | 2.46 | 3.29 | 2.68 | 2.88 |  |  |  |  |  |  |
| C/C(=N\Nc1nc2cc(C)ccc2s1)c1ccccn1 |  | 9.59 |  | 21.2 | > 100 | 4.35 | 12.6 |  | > 23.1 | 0.93 |  |  |  |  |  |  |
| CN(C)[C@@H]1C(=O)C(C(N)=O)=C(O)[C@@]2(O)C(=O)C3=C(O)c4c(O)cccc4C[C@H]3C[C@@H]12 |  | 5.92 | 3.28 | 4.47 | 5.65 | 3.63 | 6.54 | 4.68 |  |  |  |  |  |  |  |  |
| COC(=O)/C(=C/c1ccc(OC)cc1)C(C(=O)O)=C(C)C | > 100 µM | > 100 | > 100 | > 100 | > 100 | > 100 | > 100 | > 100 |  |  |  |  |  |  |  |  |
| c1cnc2c(c1)-n1cccc1C1(CCOCC1)NN2 | > 100 µM | > 100 | > 100 | > 100 | > 100 | > 100 | > 100 | > 100 |  |  |  |  |  |  |  |  |
| C=C1CC2CC[C@@]34C[C@@H]5O[C@@H]6C(O[C@H]7CC[C@H](CC(=O)OC8[C@@H](C)C9OC%10C[C@]%11(C[C@@H]%12O[C@@]%13(C[C@@H](C)[C@@H]%12O%11)C[C@H](C)[C@@H]%11OC%12CC(C(O)CO)OC%12C[C@@H]%11O%13)OC%10CC9O[C@H]8C[C@H]8O[C@@H](CC[C@@H]1O2)C[C@@H](C)C8=C)O[C@@H]7[C@@H]6O3)C5O4 (stereo partly specified) | 0.00108 µM and < 0.000148 µM |  | 0.00327 | 0.0127 |  | 0.00591 |  | 0.000191 |  |  | < 0.000148 | < 0.000148 | < 0.000148 | < 0.000148 | < 0.000148 | < 0.000148 |
| O=C(NCCNCCO)N/N=C/c1cccc([N+](=O)[O-])c1 | > 100 µM | > 100 | > 100 |  | > 100 | > 100 | > 100 | > 100 |  |  |  |  |  |  |  |  |
| C=CCN1C(=O)CS/C1=N\NC(=O)c1c(C)nc2sccn12 | > 100 µM | > 100 | > 100 | > 100 | > 100 | > 100 | > 100 | > 100 |  |  |  |  |  |  |  |  |
| O=C1Nc2ccccc2C(=O)OC(Cc2ccccc2)=Nc2ccccc21 | > 100 µM | > 100 | > 100 | > 100 | > 100 | > 100 | > 100 | > 100 | > 100 |  |  |  |  |  |  |  |
| C=C/C(C)=C/[C@H](C)C(=O)C[C@H](O)CC1CC(=O)NC(=O)C1 | > 100 µM |  | > 100 | > 94.7 | > 100 | > 100 | > 100 | > 100 |  |  |  |  |  |  |  |  |
| COc1ccc(-n2sc3ncc(-c4ccccc4)cc3c2=O)cc1 | 47.2 µM | 39.3 | 57.8 | 80.8 | > 100 | > 100 | > 100 | > 100 | > 100 |  |  |  |  |  |  |  |

| Compound | TGI [1] | TGI [2] [µM] | TGI [3] [µM] | TGI [4] [µM] | TGI [5] [µM] | TGI [6] [µM] | TGI [7] [µM] | TGI [8] [µM] | TGI [9] [µM] | TGI [10] [µM] | GI50 [1] [µM] | GI50 [3] [µM] | GI50 [4] [µM] | GI50 [5] [µM] | GI50 [7] [µM] | GI50 [8] [µM] |
| --- | --- | --- | --- | --- | --- | --- | --- | --- | --- | --- | --- | --- | --- | --- | --- | --- |
| COC(=O)C(=O)C(C(=O)C(=O)Nc1ccccc1C(=O)OC)c1nc2ccc(C(=O)c3ccccc3)cc2[nH]c1=O (stereo unspecified) | > 100 µM | > 100 | > 100 |  |  | > 100 | > 100 | > 100 | > 100 | > 100 |  |  |  |  |  |  |
| O=C(CCN1CCCCC1CCO)Nc1ccc2c(c1)C(=O)c1ccc(NC(=O)CCN3CCCCC3CCO)cc1C2=O (stereo unspecified) | 9.03 µM | 5.54 | 14.7 | 26.2 | > 100 | 21.5 | 9.87 | 14.9 |  |  |  |  |  |  |  |  |
| COC(=O)OC[C@H]1O[C@@H](n2cc(C)c(=O)[nH]c2=O)CC1OC(=O)OC (stereo partly specified) | > 100 µM | > 100 |  | > 100 | > 100 | > 100 | > 100 | > 100 | > 100 | > 100 |  |  |  |  |  |  |
| CC(C)CN1CN(c2ccccc2)C2(CCN(CC(C)(c3ccc(F)cc3)C3OCCO3)CC2)C1=O (stereo unspecified) | 22.4 µM | 12.1 | 13.9 | 21.9 | 18.1 | 4.95 | 15.6 | 17.2 | 14.3 |  |  |  |  |  |  |  |
| CC1=C/C(=C(\c2ccc(N(C)C)cc2)c2ccc([N+](C)(C)C)cc2)C=CC1=[N+](C)C | 24.4 µM | 58.2 | 14.3 | 89.4 |  | 24.5 | 16.1 | 17.6 |  |  |  |  |  |  |  |  |
| COc1cc2c(cc1O)[C@H](C)C(c1ccc(Cl)cc1)O2 (stereo partly specified) | > 100 µM | 32 | 30.1 | > 100 | 39 | 31.8 | 62.1 | 69 |  |  |  |  |  |  |  |  |
| COc1ccc(C[C@@H]2CN(C(=O)c3ccccc3)[C@H](Cc3ccc(O)cc3)CN2C(=O)c2ccccc2)cc1Br | > 100 µM | > 100 | > 100 | > 100 | > 100 |  | > 100 |  | > 100 |  |  |  |  |  |  |  |
| CC1C(c2ccc(N(C)C)cc2)c2cc3c(cc2OC1N1CCCC1)OCO3 (stereo unspecified) | > 100 µM | > 100 | > 100 | > 100 | > 100 | > 100 | > 100 | > 100 | > 100 |  |  |  |  |  |  |  |
| N#CI1OC(=O)c2ccccc21 | > 100 µM | > 100 | > 100 |  | > 100 | > 100 | > 100 | > 100 | > 100 | > 100 |  |  |  |  |  |  |
| On1c(-c2ccccc2)c(-c2c(-c3ccccc3)n(O)c3ccccc23)c2ccccc21 | > 100 µM | 39.7 | > 100 | > 100 | > 100 | 50 | > 100 | > 100 |  |  |  |  |  |  |  |  |
| c1ccc2[nH]c(-c3nc4ccccc4o3)nc2c1 | > 100 µM | > 100 | > 100 |  | > 100 | > 100 | > 100 | > 100 |  |  |  |  |  |  |  |  |
| CS(=O)(=O)NNS(=O)(=O)c1ccc(Br)cc1 |  | > 100 | > 100 | > 100 | > 100 | > 100 |  | > 100 |  |  |  |  |  |  |  |  |
| CCOC(=O)C1NCCc2c1[nH]c1ccccc21 (stereo unspecified) | > 10 µM | > 10 |  |  | > 10 | > 10 | > 10 |  | > 10 | > 10 |  |  |  |  |  |  |
| c1cc(-c2cscc2-c2ccsc2)cs1 | 89.8 µM | > 100 | > 100 |  | > 100 | > 100 | 38 | > 100 | > 100 | > 100 |  |  |  |  |  |  |
| COc1ccc(C2SCC(=O)N2N=C2NC(=O)CC(=O)N2)cc1 (stereo unspecified) | > 100 µM | > 100 | > 100 |  | > 100 | > 100 | > 100 | > 100 | > 100 | > 100 |  |  |  |  |  |  |
| COC(=O)c1ccc(CN2CCc3c([nH]c4ccccc34)C2CO)o1 (stereo unspecified) | > 10 µM | > 10 |  |  | > 10 | > 10 | > 10 |  | > 10 | > 10 |  |  |  |  |  |  |
| Cc1cc(Br)c(N2C3=C(CC4=C2CCCC4=O)C(=O)CCC3)c(Br)c1 | > 100 µM | > 100 |  | > 100 | > 100 | > 100 | > 100 | > 100 | > 100 |  |  |  |  |  |  |  |
